Assay results published in ChEMBL document CHEMBL4219060, “Discovery of EBI-1051: A novel and orally efficacious MEK inhibitor with benzofuran scaffold” (Bioorg Med Chem, 2018).
The source made the active and inactive calls. The calls are words filed in the database; no cut-off is given here.

Columns and labels:
COLO 205 [1] = assay: Antiproliferative activity against human COLO205 cells harboring BRAF mutant/wild type KRAS/wild type PIK3CA after 72 hrs by CCK8 assay; details: COLO 205, 72 h
U-937 = assay: Antiproliferative activity against human U937 cells harboring wild type BRAF/KRAS/PIK3CA after 72 hrs by CCK8 assay; type: functional, cell-based
A549 = assay: Antiproliferative activity against human A549 cells harboring KRAS mutant/wild type BRAF/PIK3CA after 72 hrs by CCK8 assay; type: functional, cell-based
Mus musculus = assay: Toxicity in athymic nude mouse xenografted with human COLO205 cells assessed as body weight loss at 10 mg/kg, po qd for 14 days measured twice per week during compound dosing; type: organism-based; details: in vivo, 336 h
SW480 = assay: Antiproliferative activity against human SW480 cells harboring KRAS mutant/wild type BRAF/PIK3CA after 72 hrs by CCK8 assay; type: functional, cell-based
[2] = Volume of distribution at steady state in Sprague-Dawley rat at 2 mg/kg, iv; type: ADME, organism-based; details: in vivo, read-out: Vdss
[3] = Clearance in Sprague-Dawley rat at 2 mg/kg, iv; type: ADME, organism-based; details: in vivo
NCI-H1299 = assay: Antiproliferative activity against human NCI-H1299 cells harboring wild type BRAF/KRAS/PIK3CA after 72 hrs by CCK8 assay; type: functional, cell-based
HT-29 = assay: Antiproliferative activity against human HT-29 cells harboring BRAF mutant/PIK3CA mutant/wild type KRAS after 72 hrs by CCK8 assay; type: functional, cell-based
DLD-1 = assay: Antiproliferative activity against human DLD1 cells harboring KRAS mutant/wild type BRAF/PIK3CA D549N mutant after 72 hrs by CCK8 assay; type: functional, cell-based
[4] = AUC (0 to t) in Sprague-Dawley rat at 10 mg/kg, po via gavage; type: ADME, organism-based; details: in vivo
HeLa = assay: Antiproliferative activity against human HeLa cells harboring wild type BRAF/KRAS/PIK3CA after 72 hrs by CCK8 assay; type: functional, cell-based
MDA-MB-231 = assay: Antiproliferative activity against human MDA-MB-231 cells harboring KRAS mutant/wild type BRAF/PIK3CA after 72 hrs by CCK8 assay; type: functional, cell-based
[5] = Cmax in Sprague-Dawley rat at 10 mg/kg, po via gavage; type: ADME, organism-based; set-up: dose 10 mg/kg, route oral; details: in vivo
[6] = Half life in Sprague-Dawley rat at 10 mg/kg, po via gavage; type: ADME, organism-based; details: in vivo
Calu-6 = assay: Antiproliferative activity against human Calu6 cells harboring KRAS mutant/wild type BRAF/PIK3CA after 72 hrs by CCK8 assay; type: functional, cell-based
[7] = Oral bioavailability in Sprague-Dawley rat at 10 mg/kg via gavage; type: ADME, organism-based; details: in vivo
COLO 205 [8] = assay: Antitumor activity against human COLO205 cells xenografted in athymic nude mouse assessed as tumor growth inhibition at 10 mg/kg, po qd for 14 days measured twice per week during compound dosing relative to control; details: COLO 205, po, 336 h, read-out: TGI
[9] = biological target: Dual specificity mitogen-activated protein kinase kinase 1 (Homo sapiens, UniProt Q02750)
Chain of Dual specificity mitogen-activated protein kinase kinase 1 (Q02750 whole entry): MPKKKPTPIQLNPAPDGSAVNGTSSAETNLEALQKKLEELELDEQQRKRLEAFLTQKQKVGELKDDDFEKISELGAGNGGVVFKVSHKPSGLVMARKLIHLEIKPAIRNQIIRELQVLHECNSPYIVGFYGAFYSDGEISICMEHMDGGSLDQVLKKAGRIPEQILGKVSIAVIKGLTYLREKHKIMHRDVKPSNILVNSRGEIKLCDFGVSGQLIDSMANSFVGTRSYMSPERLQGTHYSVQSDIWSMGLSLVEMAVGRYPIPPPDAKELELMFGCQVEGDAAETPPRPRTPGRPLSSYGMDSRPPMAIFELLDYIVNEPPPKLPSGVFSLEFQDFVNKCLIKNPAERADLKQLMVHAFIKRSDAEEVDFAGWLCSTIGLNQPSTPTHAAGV
Description: Inhibition of MEK1 (unknown origin) using Ser/Thr 03 peptide substrate after 4 hrs by fluorescence assay

## O=C(NOCCO)c1cc2c(cc1Nc1ccc(I)cc1F)OCC2
COLO 205 [1]
  IC50: > 1 µM

## O=C(NOC(CO)CO)c1cc2ccoc2c(F)c1Nc1ccc(I)cc1F
U-937
  Activity: inactive
A549
  Activity: Active
Mus musculus
  Activity: Non-Toxic
SW480
  Activity: Active
[2]
  Vd: 0.8 L/kg
[3]
  clearance: 3.4 mL/min/kg
NCI-H1299
  Activity: inactive
COLO 205 [1]
  IC50: 0.0047 µM
HT-29
  Activity: Active
DLD-1
  Activity: Active
[4]
  AUC(0-t): 43300 ng·h/mL
HeLa
  Activity: inactive
MDA-MB-231
  Activity: Active
[5]
  Cmax: 13600 ng/mL
[6]
  half-life: 2.5 h
Calu-6
  Activity: Active
[7]
  bioavailability: 80%
COLO 205 [8]
  inhibition in vivo at 10 mg/kg: 78%

## O=C(c1cc2c(c(F)c1Nc1ccc(I)cc1F)OCC2)N1C[C@@H](O)CO1
[9]
  IC50: > 1 µM
COLO 205 [1]
  IC50: > 1 µM

## O=C(NOCCO)c1cc2ccoc2c(F)c1Nc1ccc(I)cc1F
COLO 205 [1]
  IC50: 0.0029 µM
[4]
  AUC(0-t): 8370 ng·h/mL
[5]
  Cmax: 2080 ng/mL
[6]
  half-life: 1.7 h

## O=C(NOCCO)c1cc2c(c(Cl)c1Nc1ccc(I)cc1F)OCC2
COLO 205 [1]
  IC50: 0.0384 µM

## Cn1cnc2c(F)c(Nc3ccc(Br)cc3Cl)c(C(=O)NOCCO)cc21 [SELUMETINIB]
A549
  Activity: inactive
Mus musculus
  Activity: Non-Toxic
COLO 205 [1]
  IC50: 0.059 µM
MDA-MB-231
  Activity: inactive
COLO 205 [8]
  inhibition in vivo at 10 mg/kg: 60%

## O=C(NOC[C@H](O)CO)c1cc2ccoc2c(F)c1Nc1ccc(I)cc1F
COLO 205 [1]
  IC50: 0.0025 µM
[4]
  AUC(0-t): 2860 ng·h/mL
[5]
  Cmax: 695 ng/mL
[6]
  half-life: 3.4 h

## O=C(NC[C@H](O)CO)c1cc2c(c(F)c1Nc1ccc(I)cc1F)OCC2
[9]
  IC50: > 1 µM

## O=C(NOC[C@H](O)CO)c1cc2c(c(F)c1Nc1ccc(I)cc1F)OCC2
[2]
  Vd: 9.4 L/kg
[3]
  clearance: 73.6 mL/min/kg
COLO 205 [1]
  IC50: 0.0072 µM
[4]
  AUC(0-t): 1470 ng·h/mL
[5]
  Cmax: 342 ng/mL
[6]
  half-life: 2 h
[7]
  bioavailability: 62%

## O=C(NOCCCO)c1cc2ccoc2c(F)c1Nc1ccc(I)cc1F
COLO 205 [1]
  IC50: 0.0765 µM

## O=C(NC[C@@H](O)CO)c1cc2c(c(F)c1Nc1ccc(I)cc1F)OCC2
[9]
  IC50: > 1 µM

## CC(C)(CO)ONC(=O)c1cc2ccoc2c(F)c1Nc1ccc(I)cc1F
COLO 205 [1]
  IC50: 0.012 µM

## O=C(NOC[C@@H](O)CO)c1cc2c(c(F)c1Nc1ccc(I)cc1F)OCC2
COLO 205 [1]
  IC50: 0.0901 µM

## O=C(NOCCO)c1cc2c(c(F)c1Nc1ccc(Br)cc1Cl)OCC2
COLO 205 [1]
  IC50: > 1 µM

## O=C(NOCCO)c1cc2c(c(F)c1Nc1ccc(I)cc1F)OCC2
COLO 205 [1]
  IC50: 0.01 µM
